The record followed here is US20230265151A1, “GIP/GLP1 CO-AGONIST COMPOUNDS” (priority 2020, published 2023).

Like-named read-outs stand apart in the source and are kept apart here. Some results are limits rather than exact numbers.

What is called Emax is the greatest response seen or fitted, relative to the assay's reference. Broadly, the EC50 is the midpoint of the concentration-response curve.

Holding throughout (format): cell-based
The target of one assay is T1, hGIPR (Homo sapiens, UniProt P48546).
T1 construct: expressed in transfected cells
T1 sequence (P48546 22-466): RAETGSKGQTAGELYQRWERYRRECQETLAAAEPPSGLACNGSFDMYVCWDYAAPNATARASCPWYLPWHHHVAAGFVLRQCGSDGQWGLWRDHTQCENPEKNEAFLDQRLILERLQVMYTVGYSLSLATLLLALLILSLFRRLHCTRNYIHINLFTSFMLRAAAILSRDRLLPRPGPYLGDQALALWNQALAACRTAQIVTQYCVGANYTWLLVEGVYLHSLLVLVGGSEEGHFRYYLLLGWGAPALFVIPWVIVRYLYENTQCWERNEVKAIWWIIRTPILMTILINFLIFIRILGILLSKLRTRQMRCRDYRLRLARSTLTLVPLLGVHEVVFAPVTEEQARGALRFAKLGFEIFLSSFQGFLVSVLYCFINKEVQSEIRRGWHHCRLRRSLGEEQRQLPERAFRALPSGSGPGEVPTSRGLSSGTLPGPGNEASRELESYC
Put plainly: Functional cAMP formation (HTRF) in HEK-293 clonal cells expressing hGIPR, 0.1% bovine casein, without or with 1.0% human serum albumin. The settings on record: for Emax: read-out: hGIPR Emax, % ± SEM; for EC50: cAMP, 0.1% bovine casein (no human serum albumin), geometric mean, read-out: hGIPR EC50, nM (SEM, n). In short, it runs like this:
(§1)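 Readings of the HTRF 665/620 nm ratio, which falls as cAMP rises, were converted to nM cAMP using a standard curve after 30 min peptide exposure at 37° C.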
For orientation: cAMP levels reflect the balance of adenylyl cyclase and phosphodiesterase activity.

The target of another assay is T2, hGCGR (Homo sapiens, UniProt P47871).
T2 construct: expressed in transfected cells
Put plainly: Functional cAMP formation (HTRF) in HEK-293 clonal cells expressing hGCGR, 0.1% bovine casein, without or with 1.0% human serum albumin. The settings on record: geometric mean, read-out: hGCGR EC50, nM (SEM, n). A digest of the protocol: as §1

Another assay deals with hGLP-1R (Homo sapiens, UniProt P43220). Put plainly: Functional cAMP formation (HTRF) in HEK-293 clonal cells expressing hGLP-1R, 0.1% bovine casein, without or with 1.0% human serum albumin. The arrangement: expressed in transfected cells. As to conditions: for EC50: geometric mean, read-out: hGLP-1R EC50, nM (SEM, n); for Emax: read-out: hGLP-1R Emax, % ± SEM. A digest of the protocol:
as §1

Setting [1] is: HEK293, 0.1% bovine casein and 1.0% human serum albumin, 37° C., percent of maximal response to GIP(1-42)NH2.
[2] abbreviates: 0.1% bovine casein and 1.0% human serum albumin, 37° C.
Where [3] appears, read: cAMP, incubated at 37° C., 0.1% bovine casein (no human serum albumin).

hGLP-1R, sequence (P43220 24-463): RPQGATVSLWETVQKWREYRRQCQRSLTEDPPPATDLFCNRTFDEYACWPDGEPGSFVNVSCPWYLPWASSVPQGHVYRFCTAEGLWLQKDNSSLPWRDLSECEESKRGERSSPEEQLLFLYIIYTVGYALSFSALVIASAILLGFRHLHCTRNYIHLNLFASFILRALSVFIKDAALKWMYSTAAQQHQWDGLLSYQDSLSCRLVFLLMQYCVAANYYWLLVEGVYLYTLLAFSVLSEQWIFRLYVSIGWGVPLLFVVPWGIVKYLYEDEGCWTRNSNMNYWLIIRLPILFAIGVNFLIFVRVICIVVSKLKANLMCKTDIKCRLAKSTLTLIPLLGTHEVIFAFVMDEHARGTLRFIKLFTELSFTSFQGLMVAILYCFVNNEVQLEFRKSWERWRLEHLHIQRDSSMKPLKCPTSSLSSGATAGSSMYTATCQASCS
T2 sequence (P47871 26-477): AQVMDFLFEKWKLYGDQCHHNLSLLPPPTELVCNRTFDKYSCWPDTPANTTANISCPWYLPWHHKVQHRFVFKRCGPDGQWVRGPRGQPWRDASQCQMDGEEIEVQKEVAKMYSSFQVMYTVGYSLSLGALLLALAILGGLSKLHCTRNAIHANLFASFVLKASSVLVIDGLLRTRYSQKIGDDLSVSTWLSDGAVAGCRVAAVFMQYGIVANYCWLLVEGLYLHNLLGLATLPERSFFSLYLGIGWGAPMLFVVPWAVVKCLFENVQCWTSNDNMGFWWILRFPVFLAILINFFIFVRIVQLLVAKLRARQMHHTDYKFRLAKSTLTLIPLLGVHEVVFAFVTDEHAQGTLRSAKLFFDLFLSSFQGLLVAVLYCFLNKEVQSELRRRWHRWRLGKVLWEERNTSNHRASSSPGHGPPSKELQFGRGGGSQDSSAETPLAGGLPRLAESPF

As for `CC[C@H](C)[C@H](NC(=O)[C@H](CCCN)NC(=O)[C@H](CC(=O)O)NC(=O)[C@H](CC(C)C)NC(=O)[C@](C)(CC(C)C)NC(=O)[C@@H](NC(=O)[C@H](CO)NC(=O)[C@H](Cc1ccncc1)NC(=O)[C@H](CC(=O)O)NC(=O)[C@H](CO)NC(=O)[C@@H](NC(=O)[C@](C)(Cc1ccccc1F)NC(=O)[C@@H](NC(=O)CNC(=O)[C@H](CCC(=O)O)NC(=O)C(C)(C)NC(=O)[C@@H](N)Cc1ccc(O)cc1)[C@@H](C)O)[C@@H](C)O)[C@@H](C)CC)C(=O)N[C@@H](C)C(=O)N[C@@H](CCC(N)=O)C(=O)NC(C)(C)C(=O)N[C@@H](CCC(=O)O)C(=O)N[C@@H](Cc1ccccc1)C(=O)N[C@H](C(=O)N[C@@H](CCCCNC(=O)COCCOCCNC(=O)COCCOCCNC(=O)CCCCCCCCCCCCC(=O)O)C(=O)N[C@@](C)(Cc1ccc(O)cc1)C(=O)N[C@@H](CC(C)C)C(=O)N[C@H](C(=O)N[C@@H](CCCCNC(=O)COCCOCCNC(=O)COCCOCCNC(=O)CCCCCCCCCCCCC(=O)O)C(=O)NCC(=O)NCC(=O)N1CCC[C@H]1C(=O)N[C@@H](CO)C(=O)N[C@@H](CO)C(=O)NCC(=O)N[C@@H](C)C(=O)N1CCC[C@H]1C(=O)N1CCC[C@H]1C(=O)N1CCC[C@H]1C(=O)N[C@@H](CO)C(N)=O)[C@@H](C)CC)[C@@H](C)CC` [Example 192], the Emax at hGIPR (setting [1]) stood at 93.6 ± 3.98%; on hGIPR (HEK293, percent of maximal response to GIP(1-42)NH2, 37° C., 0.1% bovine casein, arithmetic mean) it was 96.5 ± 4.86%; at hGLP-1R (HEK293, 0.1% bovine casein and 1.0% human serum albumin, 37° C., percent of maximal response to GLP-1(7-36)NH2) it was 121 ± 2.56%; at hGLP-1R (HEK293, percent of maximal response to GLP-1(7-36)NH2, 37° C., 0.1% bovine casein, arithmetic mean), 100 ± 2.34%. Further, the EC50 on hGIPR (incubated at 37° C.) is 0.0375 nM; at hGCGR (setting [2]), greater than 9950 nM; at hGCGR (setting [3]) it was greater than 9950 nM; at hGLP-1R (setting [2]), 11.2 nM; on hGLP-1R (setting [3]) it was 0.518 nM.

As for `CC[C@H](C)[C@H](NC(=O)[C@H](CC(C)C)NC(=O)[C@](C)(Cc1ccc(O)cc1)NC(=O)[C@@H](CCC(=O)O)NC(=O)[C@@H](NC(=O)[C@H](Cc1ccccc1)NC(=O)[C@H](CCC(=O)O)NC(=O)C(C)(C)NC(=O)[C@H](CCC(N)=O)NC(=O)[C@H](C)NC(=O)[C@H](CCCCNC(=O)COCCOCCNC(=O)COCCOCCNC(=O)CC[C@H](NC(=O)CCCCCCCCCCCCC(=O)O)C(=O)O)NC(=O)[C@H](CCCN)NC(=O)[C@H](CC(=O)O)NC(=O)[C@H](CC(C)C)NC(=O)[C@](C)(CC(C)C)NC(=O)[C@@H](NC(=O)[C@H](CO)NC(=O)[C@H](Cc1ccc(OC)cc1)NC(=O)[C@H](CC(=O)O)NC(=O)[C@H](CO)NC(=O)[C@@H](NC(=O)[C@](C)(Cc1ccccc1F)NC(=O)[C@@H](NC(=O)CNC(=O)[C@H](CCC(=O)O)NC(=O)C(C)(C)NC(=O)[C@@H](N)Cc1ccc(O)cc1)[C@@H](C)O)[C@@H](C)O)[C@@H](C)CC)[C@@H](C)CC)C(=O)N[C@@H](CCC(=O)O)C(=O)NCC(=O)NCC(=O)N1CCC[C@H]1C(=O)N[C@@H](CO)C(=O)N[C@@H](CO)C(=O)NCC(=O)N[C@@H](C)C(=O)N1CCC[C@H]1C(=O)N1CCC[C@H]1C(=O)N1CCC[C@H]1C(=O)N[C@@H](CO)C(=O)N[C@@H](CCCCNC(=O)COCCOCCNC(=O)COCCOCCNC(=O)CC[C@H](NC(=O)CCCCCCCCCCCCC(=O)O)C(=O)O)C(N)=O` [Example 261], the Emax came to 75.7% on hGIPR (setting [1]); 105% at hGIPR (HEK293, cAMP, 37° C., 0.1% bovine casein, percent of maximal response to GIP(1-42)NH2, arithmetic mean); 97.9% at hGLP-1R (HEK293, cAMP, 37° C., 0.1% bovine casein, percent of maximal response to GLP-1(7-36)NH2, arithmetic mean). Also, the EC50 on hGIPR (37° C.) is 0.025 nM; on hGCGR (setting [2]), greater than 9950 nM; on hGCGR (cAMP, 37° C., 0.1% bovine casein (no human serum albumin)), greater than 9950 nM.
